Measured values from article PMC10799085, “A miniaturized mode-of-action profiling platform enables high throughput characterization of the molecular and cellular dynamics of EZH2 inhibition” (Scientific Reports, 2024).
Read-outs that look alike come from different tables or passages of the source.

Experiments:
[1] = tested on: KARPAS-422 cells; experiment: Cellular proliferation assay (AlamarBlue, 144 h); assay type: cell-based; details: Homo sapiens
Protocol: Cell viability was determined by means of the AlamarBlue® reagent (Thermo Fisher Scientific) following instructions from the manufacturer. […] Anti-proliferative IC50s were calculated by fitting the normalized AlamarBlue® fluorescence values to a 4-parameter logistic equation using the Electronic Notebook (ELN) software from IDBS.

[2] = tested on: EZH2; parameters: method as in Konze et al. [41]; details: 40-fold higher enzyme concentration; ref Konze et al. [41]; cited from earlier work
[3] = molecular target: T1, PRC2/EZH2+/+ (Homo sapiens, UniProt Q15910); experiment: Equilibrium binding thermodynamics (van't Hoff analysis of ePCA/kPCA at 5-37 °C); details: ePCA at 5-37 °C, wild type EZH2
T1 construct: purchased Active Motif
Protocol: (§1) For thermodynamic analysis of the binding to EZH2+/+ the probe characterization, equilibrium and kinetic probe competition assays described above (previously conducted at 25 °C) were performed at 5, 15, 30 and 37 °C. […] For measurements at 25, 30 and 37 °C, the temperature control functionality of the instrument was used.
Equilibrium and kinetic binding constants obtained at various temperatures were used to determine the thermodynamic parameters by van’t Hoff and Eyring analysis, as described elsewhere for SPR and radioligand binding experiments[46],[69]. For the van’t Hoff thermodynamic analysis, changes in entropy ΔS° and enthalpy ΔH° were estimated by linear regression using the van’t Hoff equation. lnKA=ΔS^∘/R-ΔH^∘/RT,
Changes in Gibb’s free energy ΔG° were calculated according to. ΔG^∘T=ΔH^∘-T×ΔS^∘
Additionally, the possible temperature dependence of the thermodynamic parameters was considered using the integrated form of the van’t Hoff equation[47] for nonlinear regression to yield the changes in entropy, enthalpy, and heat capacity ΔCp: ln KA=-ΔH^∘T^∘/RT+ΔS^∘T^∘/R+ΔCp/R[T-T^∘/T-lnT/T^∘],

[4] = molecular target: T1, PRC2/EZH2+/+; experiment: Transition state thermodynamics (Eyring analysis of kPCA at 5-37 °C); assay type: binding; details: Kinetic (Eyre); for Enthalpic Efficiency (kon): association; for Enthalpic Efficiency (koff): dissociation
Protocol: as §1
For Eyring transition state analysis, changes in the activation entropy ΔS^# and enthalpy ΔH^# were estimated by Eyring analysis using linear regression of. lnkh/kBT=ΔS^#/R-ΔH^#/(RT).
To consider the possible temperature dependence, the activation entropy and enthalpy were obtained along with the activation heat capacity ΔC^#p by nonlinear regression using. lnkh/kBT=-ΔH^#T^∘/RT+ΔS^#T^∘/R+ΔCp#/R[T-T^∘/T-lnT/T^∘],

[5] = molecular target: T2, PRC2/EZH1 (Homo sapiens, UniProt Q92800); experiment: Scintillation proximity assay (SPA) of H3K27 methylation; assay type: biochemical
T2 construct: N-terminal 6His-tagged full length EZH2^Y641N, EZH2^Y111L, EZH2^Y111D, EZH2^Y641N, Y661DEZH2, EZH1; 6His (N); made in house; host or cells: Sf9 insect cells (baculovirus co-infection)

[6] = tested on: H3K27me3 mark in MDA-MB-231 cells; experiment: High content analysis (HCA) of cellular H3K27me3 mark, washout format; assay type: cell-based; details: for IC50: Homo sapiens, MDA-MB-231, read-out: Mean IC50 (M), H3K27 methylation HCA
Protocol: In the low- and high-signal control wells, test compounds were replaced by 10 µM of EZH2 inhibitor (equal to unlabeled probe from ePCA and kPCA) or DMSO, respectively. […] After fixation, the cells were washed with PBS and incubated with 1% BSA blocking solution at RT for 1 h. Blocking solution was discarded, primary monoclonal antibody rabbit Tri-methyl-histone H3K27 (C36B11, Cell signaling) diluted 1:200 in blocking solution was added and incubated overnight at 4 °C. […] Afterwards, cells were washed three times with PBS and incubated at 4 °C until measuring. Fluorescence signals were captured by an Opera Phenix™ High Content Screening (HCA) system (Perkin Elmer) by 10× magnification. […] Microscopy images were initially visualized and preprocessed with MetaXpress High Content Image Acquisition & Analysis Software (Molecular Devices) as previously described. Raw data import, normalization, quality control and fitting curves for IC50 determination of tested compounds were done with Genedata Screener® for high-content screening. Wells with no recognizable signals were masked and the average intensity of the trimethylation signal was normalized to the DMSO control (0%).

T1 sequence (Q15910 whole entry): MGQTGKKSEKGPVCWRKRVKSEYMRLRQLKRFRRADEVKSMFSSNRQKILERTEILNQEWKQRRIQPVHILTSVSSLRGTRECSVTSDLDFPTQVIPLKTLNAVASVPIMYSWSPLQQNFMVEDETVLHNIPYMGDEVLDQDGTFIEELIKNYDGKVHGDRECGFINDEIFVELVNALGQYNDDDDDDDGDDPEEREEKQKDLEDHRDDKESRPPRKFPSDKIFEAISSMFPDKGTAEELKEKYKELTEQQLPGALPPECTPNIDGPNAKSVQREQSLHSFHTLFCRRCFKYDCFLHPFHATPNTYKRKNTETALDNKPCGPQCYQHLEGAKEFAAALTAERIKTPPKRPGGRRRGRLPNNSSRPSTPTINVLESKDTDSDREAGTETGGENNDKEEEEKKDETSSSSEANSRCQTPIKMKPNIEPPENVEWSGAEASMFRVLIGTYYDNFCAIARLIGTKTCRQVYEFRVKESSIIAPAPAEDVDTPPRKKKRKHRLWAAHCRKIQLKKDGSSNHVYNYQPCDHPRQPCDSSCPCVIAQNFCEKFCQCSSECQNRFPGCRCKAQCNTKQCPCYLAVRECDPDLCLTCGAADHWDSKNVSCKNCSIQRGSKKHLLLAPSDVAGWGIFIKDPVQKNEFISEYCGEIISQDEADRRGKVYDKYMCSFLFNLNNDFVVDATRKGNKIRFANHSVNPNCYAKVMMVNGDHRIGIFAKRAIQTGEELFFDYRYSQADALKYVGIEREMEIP
T1 sequence (O75530 whole entry partner): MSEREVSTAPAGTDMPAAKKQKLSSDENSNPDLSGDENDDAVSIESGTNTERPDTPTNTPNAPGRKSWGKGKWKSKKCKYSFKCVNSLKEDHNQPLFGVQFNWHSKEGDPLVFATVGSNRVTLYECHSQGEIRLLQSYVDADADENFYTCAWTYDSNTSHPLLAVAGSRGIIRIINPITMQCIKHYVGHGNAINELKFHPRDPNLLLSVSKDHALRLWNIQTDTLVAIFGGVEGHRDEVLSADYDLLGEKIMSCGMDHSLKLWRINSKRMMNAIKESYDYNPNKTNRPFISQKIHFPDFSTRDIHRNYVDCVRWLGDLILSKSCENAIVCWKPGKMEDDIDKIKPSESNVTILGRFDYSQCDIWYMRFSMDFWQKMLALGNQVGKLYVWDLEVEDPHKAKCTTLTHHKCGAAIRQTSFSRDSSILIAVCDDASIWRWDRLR
T1 sequence (Q15022 whole entry partner): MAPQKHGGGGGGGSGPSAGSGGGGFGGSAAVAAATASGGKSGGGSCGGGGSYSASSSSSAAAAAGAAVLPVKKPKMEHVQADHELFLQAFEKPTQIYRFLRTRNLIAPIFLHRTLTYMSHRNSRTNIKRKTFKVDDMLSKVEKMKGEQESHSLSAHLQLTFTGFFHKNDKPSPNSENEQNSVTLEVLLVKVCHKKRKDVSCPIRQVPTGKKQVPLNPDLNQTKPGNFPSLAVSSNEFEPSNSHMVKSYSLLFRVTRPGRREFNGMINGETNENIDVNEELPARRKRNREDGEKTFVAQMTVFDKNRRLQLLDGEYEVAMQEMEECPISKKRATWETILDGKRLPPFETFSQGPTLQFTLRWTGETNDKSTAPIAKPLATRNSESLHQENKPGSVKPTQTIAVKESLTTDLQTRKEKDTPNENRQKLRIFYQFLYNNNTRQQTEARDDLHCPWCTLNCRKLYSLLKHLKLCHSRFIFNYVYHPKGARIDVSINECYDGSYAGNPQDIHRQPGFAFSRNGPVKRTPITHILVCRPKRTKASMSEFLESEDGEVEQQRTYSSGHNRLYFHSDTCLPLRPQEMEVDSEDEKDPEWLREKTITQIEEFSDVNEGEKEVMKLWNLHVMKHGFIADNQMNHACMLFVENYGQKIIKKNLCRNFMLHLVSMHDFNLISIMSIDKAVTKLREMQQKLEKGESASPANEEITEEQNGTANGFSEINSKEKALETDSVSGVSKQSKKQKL
T1 sequence (Q09028 whole entry partner): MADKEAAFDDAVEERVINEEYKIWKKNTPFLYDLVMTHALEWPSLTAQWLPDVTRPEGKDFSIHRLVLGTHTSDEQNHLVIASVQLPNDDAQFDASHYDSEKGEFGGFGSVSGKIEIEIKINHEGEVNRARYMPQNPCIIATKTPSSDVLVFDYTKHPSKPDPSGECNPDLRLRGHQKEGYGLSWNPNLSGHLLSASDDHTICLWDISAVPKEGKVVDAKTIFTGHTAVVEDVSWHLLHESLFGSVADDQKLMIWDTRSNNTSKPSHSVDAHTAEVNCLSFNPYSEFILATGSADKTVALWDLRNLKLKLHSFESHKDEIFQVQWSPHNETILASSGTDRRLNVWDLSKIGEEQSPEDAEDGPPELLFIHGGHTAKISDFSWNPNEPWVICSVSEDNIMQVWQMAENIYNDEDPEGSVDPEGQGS
T1 sequence (Q6ZN18 whole entry partner): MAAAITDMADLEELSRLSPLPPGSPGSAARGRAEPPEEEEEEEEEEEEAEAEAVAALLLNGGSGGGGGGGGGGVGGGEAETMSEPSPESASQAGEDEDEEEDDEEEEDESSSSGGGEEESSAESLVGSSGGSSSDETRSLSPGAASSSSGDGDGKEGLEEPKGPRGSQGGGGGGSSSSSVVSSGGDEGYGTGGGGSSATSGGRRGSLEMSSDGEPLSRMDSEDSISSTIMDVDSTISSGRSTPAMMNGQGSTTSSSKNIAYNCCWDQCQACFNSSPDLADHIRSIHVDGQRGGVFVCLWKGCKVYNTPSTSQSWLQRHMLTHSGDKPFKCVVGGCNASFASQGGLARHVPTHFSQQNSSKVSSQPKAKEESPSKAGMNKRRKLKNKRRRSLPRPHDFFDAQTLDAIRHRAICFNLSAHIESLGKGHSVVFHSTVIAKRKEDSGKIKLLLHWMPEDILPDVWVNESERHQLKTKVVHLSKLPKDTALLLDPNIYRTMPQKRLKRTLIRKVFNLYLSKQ

## CCCc1cc(C)[nH]c(=O)c1CNC(=O)c1cc(-c2ccc(N3CCN(C(C)C)CC3)nc2)cc2c1cnn2C(C)C [Compound 9, UNC1999]
[1]; KARPAS-422 cells, 6-day (144 h), AlamarBlue, read-out: KARPAS (6-day) Anti-proliferation IC50
  IC50: 6.3e-07 M
[2]
  IC50: 10 nM

## Cc1cc(C)c(CN2CCc3c(Cl)cc(-c4c(C)noc4C)c(Cl)c3C2=O)c(=O)[nH]1 [Compound 14]
[3]
  binding driving force, polynomial van't Hoff analysis: entropy-driven
[4]; EZH2+/+ (Linear Fit)
  Enthalpic Efficiency (kon): 1.3 kcal/mol
  Enthalpic Efficiency (koff): 1.9 kcal/mol
  -T * ΔS°kon-koff: -7.51 kcal/mol
  ΔG°kon-koff: -12 kcal/mol
  ΔH°kon-koff: -4.49 kcal/mol
[4]; EZH2+/+ (Non-linear Fit)
  Enthalpic Efficiency (kon): 0.47 kcal/mol
  Enthalpic Efficiency (koff): 1.3 kcal/mol
  -T * ΔS°kon-koff: -5.28 kcal/mol
  ΔG°kon-koff: -12.1 kcal/mol
  ΔH°kon-koff: -6.79 kcal/mol
[5]
  Ligand Efficiency - 0' enzyme:inhibitor pre-incubation EZH1: 1.1
  Ligand Efficiency - 15' enzyme:inhibitor pre-incubation EZH1: 1.1
  Ligand Efficiency - 60' enzyme:inhibitor pre-incubation EZH1: 1.1
[5]; 0' enzyme:inhibitor pre-incubation, read-out: SPA Mean IC50 (M) - 0' enzyme:inhibitor pre-incubation EZH1
  IC50: 3.1e-07 M
[5]; 15' enzyme:inhibitor pre-incubation, read-out: SPA Mean IC50 (M) - 15' enzyme:inhibitor pre-incubation EZH1
  IC50: 2.9e-07 M
[5]; 60' enzyme:inhibitor pre-incubation, read-out: SPA Mean IC50 (M) - 60' enzyme:inhibitor pre-incubation EZH1
  IC50: 2.9e-07 M
[6]; HCA H3K27 methylation washout pIC50 AUC over all incubation/washout times
  AUC (a.u.): 92.2 a.u.
[6]; incubation time 0.5 h, washout time 71.5 h
  IC50: 7e-06 M
[6]; incubation time 1 h, washout time 71 h
  IC50: 4.1e-06 M
[6]; incubation time 2 h, washout time 70 h
  IC50: 2.9e-06 M
[6]; incubation time 4 h, washout time 68 h
  IC50: 1.8e-06 M
[6]; incubation time 24 h, washout time 48 h
  IC50: 1.6e-06 M
[6]; incubation time 48 h, washout time 24 h
  IC50: 5.5e-07 M
[6]; incubation time 72 h, washout time 0 h
  IC50: 4.6e-08 M
[1]; KARPAS-422, 144 h, read-out: KARPAS (6-day) Anti-proliferation IC50 (M)
  IC50: 6.4e-07 M
